Experimental findings from patent US20250057864A1, “COMPOSITION FOR IMPROVING EXERCISE PERFORMANCE COMPRISING GYPENOSIDE COMPOUND AS ACTIVE INGREDIENT” (BTC CORPORATION, priority 2022, published 2025) are described below.

The structures appear in SMILES notation.

Data set [1] concerns C2C12 cells. The data set is described as follows: Intracellular ROS production in C2C12 cells (DCF-DA). The format is cell-based, mice. As to conditions: oxidative stress by 50 μM TBHP, 1 h pretreatment with test substance. As to the method:
C2C12 cells were dispensed into a 96-well plate at 1×10^4 cells/well and stabilized for 24 hours. Subsequently, the cells were cultured for 1 hour after exchanging with the culture medium with the myocyte differentiation medium containing each test substance. After 1 hour, the cells were washed with PBS and cultured further for 3 hours with a culture medium containing 50 μM tert-butyl hydrogen peroxide (TBHP), and the ROS level in the cells was measured using a DCF-DA assay kit (Abcam) according to the manufacturer's method.
In order to investigate the effect of each of the compositions according to Examples 1 to 4 on ROS production in C2C12 cells, ROS production was measured using 2′,7′-dichlorofluorescin diacetate (DCF-DA). DCF-DA was measured using the principle that it is oxidized by ROS in cells and is converted to DCF, which emits fluorescence.

Data set [2] deals with ICR mice. Description: Serum markers after 60 min forced swimming without weight load. Conditions: serum after 60 min forced swimming, day 17, oral 7 mg/kg BW. It is filed as in vivo. As to the method:
On day 17 after the administration of the test substance, the experimental animal was forced to swim (for 60 minutes) without a weight load. Then, the experimental animal was anesthetized using an anesthetic prepared by dilution of tribromoethanol with tertiary amyl alcohol and blood was taken from the eye socket. The blood was placed in a serum-separating tube (Becton Dickinson) and left at room temperature for 30 minutes, centrifuged at 3,000 rpm for 20 minutes to separate the serum, and kept at −70° C. until analysis.
Blood urea nitrogen (BUN) and creatinine (CREA) content in the serum and the activities of alanine aminotransferase (ALT), aspartate aminotransferase (AST), creatine kinase (CK) and lactate dehydrogenase (LDH) were measured using a blood biochemistry analyzer (KoneLab 20 XT, Thermo Fisher Scientific). The serum lactate content was measured using a lactate assay kit (Abcam) according to the method proposed by the manufacturer.
The result of measuring the contents of lactate, BUN and CREA and the activities of CK, LDH, ALT and AST in the serum taken after forced swimming for 60 minutes without weight load is shown in Table 19.

Data set [3] has as its system ICR mice. The data set is described as follows: Treadmill test: exercise time and exercise capacity until exhaustion. The format is in vivo. Conditions: 6 weeks. As to the method:
After an acclimatization period of 1 week, healthy animals were selected and divided into 6 groups according to the randomized block design. The animals were divided into (G1) a non-exercise control group, (G2) a non-exercise+7 mg/kg body weight (BW) Example 1 group, (G3) a non-exercise+7 mg/kg BW Example 2 group, (G4) a non-exercise+7 mg/kg BW Example 3 group, (G5) a non-exercise+7 mg/kg BW Example 4 group, (G6) an exercise control group, (G7) an exercise+7 mg/kg BW Example 1 group, (G8) an exercise+7 mg/kg BW Example 2 group, (G9) an exercise+7 mg/kg BW Example 3 group, (G10) an exercise+7 mg/kg BW Example 4 group, and (G11) an exercise+75 mg/kg BW Cr dose group. Each test group consisted of 10 animals.
The test substance was dissolved in drinking water and administered every day at regular times (2 hours before exercise) for 6 weeks. Throughout the test period, the experimental animals were given free access to solid feed for experimental animals (Cargill Agri Puna) and drinking water.
The endurance exercise of the animals was conducted for 6 weeks using a treadmill for small animals (Exer3/6 Treadmill, Columbus Instruments). The endurance exercise was conducted with 10 degrees of slope at 10 m/min, starting from for 15 minutes in the first week, for 20 minutes in the second week, for 25 minutes in the third week, for 30 minutes in the fourth week, for 35 minutes in the fifth week, and for 40 minutes in the sixth week.
After 6 weeks of the exercise training, in order to evaluate endurance exercise performance, exercise was started with 10 degrees of slope at 10 m/min for 5 minutes, and the intensity of the exercise was increased by 1 m/min every 1 minute up to the highest speed of 25 m/min. The duration of the exercise until exhaustion was measured. The experimental animal was judged to be exhausted if it was unable to run for 10 seconds or longer at the back of the treadmill. The exercise capacity of the experimental animal was calculated as follows.
In order to evaluate the performance of the effect of the test substances on endurance exercise performance, exercise was started with 10 degrees of slope at 10 m/min for 5 minutes, and the intensity of the exercise was increased by 1 m/min every 1 minute up to the highest speed of 25 m/min.

[4] abbreviates: non-exercise, 7 mg/kg BW, treadmill test.
Where [5] appears, read: treadmill exercise, 7 mg/kg BW (Cr 75 mg/kg BW).

As to `CC(C)=CCC[C@](C)(O)C1CC[C@]2(C)C1[C@H](O)CC1[C@@]3(C)C[C@@H](O)C(OC4OC(CO)C(O)C(O)C4OC4OC(CO)C(O)C(O)C4O)C(C)(C)C3CC[C@]12C` (some centres unmarked) [Example 1, Gypenoside L], the “ROS production (fluorescence intensity)” value in data set [1] amounted to 22.12 ± 0.70 fluorescence intensity. Further, in data set [2], the ALT is given as 100.41 ± 19.75 U/L, the AST amounted to 160.81 ± 20.53 U/L, the BUN was found to be 8.15 ± 0.68 mg/dL and the CK was determined as 1896.1 ± 196.4 U/L. In addition, in data set [2], the CREA was found to be 0.35 ± 0.01 mg/dL and the LDH was 1224.3 ± 162.1 U/L. For the same molecule, in data set [3] (setting [4]), the Exercise capacity is 1,583 ± 91 g and the “Time until exhaustion (sec)” value is reported as 1,472 ± 66 sec. In data set [3] (setting [5]), the Exercise capacity is 2,832 ± 119^+ g and the “Time until exhaustion (sec)” value is 2,393 ± 93^+ sec.
